Measured values as given in patent publication US8592166B2, “Hypoxia related genes and proteins for the treatment and diagnosis of pregnancy related complications” (Beth Israel Deaconess Medical Center, Inc., priority 2006, dated 2013).

Assays:
[1] = test system: pregnant mice; assay: COMT knockout mouse model of pre-eclampsia, administration of 2-ME to pregnant mice; assay type: in vivo; details: administration of 2-ME to mice, FIG. 12
Protocol: FIG. 4 is a schematic of the experimental design for evaluating the role of COMT pre-eclampsia in mice.
FIG. 5 is a graph showing the number of dead embryos on Day 17 of pregnancy in mice with the indicated genotype (WT=wild type; Ko=mice with the COMT gene knocked out; +2me indicates the addition of 2-ME 2 ng/day).

[2] = test system: cytotrophoblasts from the placenta; details: FIG. 1 and WO 2005/110462; cited from earlier work

For `COc1cc2c(cc1O)CC[C@@H]1[C@@H]2CC[C@]2(C)[C@@H](O)CC[C@@H]12` [2-ME, 2-methoxyestradiol], the abnormal development [1] is given as “does not alter the litter size or cause abnormal development”, the litter size [1] is given as “does not alter the litter size” and the “expression of HIF-1α” value [2] is given as “decreases the expression of HIF-1α”. The “expression of VEGF, PlGF, VEGF Receptor 1 (VEGFR1) and sFlt-1” value [2] was “dramatic decrease”.
